Source: the NIST ThermoML archive (doi:10.1016/j.jct.2012.06.015)

Assay: xn = mol fraction of the nth substance listed
Conditions: 101 kPa, Liquid, Vibrating tube method

Cn1ccnc1 [1-methylimidazole] + O
mass density [kg/m3]
Conditions | 288.15 K | 293.15 K | 298.15 K | 303.15 K | 308.15 K | 313.15 K | 318.15 K | 323.15 K
x1 = 0.0443 | 1010.2 | 1008.3 | 1006.2 | 1003.9 | 1001.6 | 999.2 | 996.6 | 994.2
x1 = 0.1036 | 1022.1 | 1019.3 | 1016.5 | 1013.3 | 1010.2 | 1007.1 | 1003.9 | 1000.9
x1 = 0.2167 | 1037.4 | 1033.7 | 1030.1 | 1026 | 1022.1 | 1018.2 | 1014.3 | 1010.6
x1 = 0.3003 | 1044.4 | 1040.3 | 1036.3 | 1031.9 | 1027.8 | 1023.6 | 1019.3 | 1015.4
x1 = 0.4024 | 1048.9 | 1044.6 | 1040.5 | 1035.9 | 1031.5 | 1027.2 | 1022.7 | 1018.6
x1 = 0.4982 | 1050.2 | 1045.8 | 1041.6 | 1036.8 | 1032.4 | 1028 | 1023.5 | 1019.3
x1 = 0.5902 | 1049.3 | 1044.7 | 1040.5 | 1035.7 | 1031.3 | 1026.9 | 1022.5 | 1018.4
x1 = 0.7159 | 1046.7 | 1042.2 | 1038 | 1033.2 | 1028.8 | 1024.4 | 1020 | 1015.9
x1 = 0.7795 | 1044.7 | 1040.2 | 1036 | 1031.2 | 1026.8 | 1022.4 | 1018 | 1013.9
x1 = 0.8907 | 1041.8 | 1037.4 | 1033.3 | 1028.5 | 1024.1 | 1019.7 | 1015.3 | 1011.2
x1 = 1 | 1039.4 | 1035 | 1030.9 | 1026.1 | 1021.7 | 1017.3 | 1012.9 | 1008.8

O [water] + Cn1ccnc1
Conditions | mass density [kg/m3]
318.15 K, x2 = 0 | 990.1
